In general, IC50 refers to the midpoint of a concentration-inhibition curve. Low values mean inhibition by little substance, high ones a need for much substance.

This note sets out measurements from patent US10800814B2, “Cyclic peptidomimetics, compositions containing them and their use in the treatment of diseases associated with angiogenesis” (priority 2015, dated 2020).

Positions of bridges follow the written chain, without caps; N, C: chain ends. Residues, ends and D or L forms follow the SMILES beside them. Chains are numbered I, II in the order given. No end group written: not given here.

This test concerns the target T1, VEGF165/NRP-1 (Rattus norvegicus, UniProt Q9QWJ9).
T1 construct: purchased R&D Systems
T1 sequence (Q9QWJ9 22-854 limits assumed): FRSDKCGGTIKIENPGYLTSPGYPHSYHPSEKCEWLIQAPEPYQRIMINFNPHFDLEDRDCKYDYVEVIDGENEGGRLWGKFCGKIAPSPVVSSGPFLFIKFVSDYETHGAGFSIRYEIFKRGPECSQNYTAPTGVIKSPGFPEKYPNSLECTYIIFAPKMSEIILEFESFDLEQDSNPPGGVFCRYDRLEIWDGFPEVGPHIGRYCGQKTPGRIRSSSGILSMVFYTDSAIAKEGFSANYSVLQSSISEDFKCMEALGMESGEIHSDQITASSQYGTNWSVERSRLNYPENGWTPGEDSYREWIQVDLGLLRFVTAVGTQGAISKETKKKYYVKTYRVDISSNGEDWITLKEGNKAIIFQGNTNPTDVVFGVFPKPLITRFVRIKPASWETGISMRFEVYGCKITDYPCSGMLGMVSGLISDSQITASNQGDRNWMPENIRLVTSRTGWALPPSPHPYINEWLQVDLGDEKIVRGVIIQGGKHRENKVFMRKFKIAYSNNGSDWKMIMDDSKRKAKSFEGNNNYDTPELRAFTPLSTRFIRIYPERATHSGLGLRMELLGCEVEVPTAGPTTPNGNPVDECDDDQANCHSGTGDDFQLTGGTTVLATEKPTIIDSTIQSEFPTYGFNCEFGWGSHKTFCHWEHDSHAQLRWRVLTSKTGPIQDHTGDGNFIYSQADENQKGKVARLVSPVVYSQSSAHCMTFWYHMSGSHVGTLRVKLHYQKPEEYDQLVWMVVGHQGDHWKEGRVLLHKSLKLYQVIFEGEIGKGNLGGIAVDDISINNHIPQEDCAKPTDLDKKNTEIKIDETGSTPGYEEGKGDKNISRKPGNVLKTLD
Description: biochemical. Format: binding. Particulars: for IC50: VEGF165/NRP-1 binding inhibition. The procedure: Selected compounds were tested in vitro by measuring the inhibition binding of VEGF165 to NRP-1. This assay allows the determination of percentage inhibition of the tested compound at a predetermined concentration. Determination of the Inhibitory Activity of the Tested Compounds. The evaluation of the inhibitory effect of peptidomimetics was performed using an enzymatic method denoting the spectrophotometric displacement of the VEGF165 ligand from the specific receptor by the evaluated compound. The studies were performed using polystyrene 96-well plates (Maxisorb, Nunc.). The Procedure for Determining the Inhibition of VEGF165/NRP-1. To evaluate the biological inhibitory activity of selected molecules in each well of flat bottom polystyrene plate of 96-wells (Maxisorb, Nunc,) a 100 μl of a solution containing 2 μg/ml of anti-Fc IgG (Sigma-Aldrich) dissolved in a phosphate buffer PBS (PBS, Sigma) was placed. The plate was allowed to stand overnight at 4° C. The next day, wells were washed three times with 100 μl PBS, and then saturated with 2% bovine serum albumin (BSA, Sigma) in PBS in order to eliminate non-specific interactions. After 2 hours of incubation at 37° C. the following solutions were added portionwise: 50 μl of purified recombinant rat NRP1-Fc (R&D Systems, Abingdon, UK) in a solution of 20 ng/well protein dissolved in PBS-BSA 0.1% tween-80 0.005% (PBT), 50 μl of compound solution in PBT in an appropriate concentration […] The total volume of added solution was 150 μl. After an overnight incubation at 4° C., the wells were washed with PBT and treated with streptavidin-HRP polymer (horseradish peroxidase, Sigma). The plate was incubated for 1 hour at room temperature. […] After 2 hours, the absorbance was measured at wavelength of 415 nm with respect to 470 nm. […] In the control wells the tested compound was absent, but the respective concentration of DMSO was maintained. The heptapeptide A7R (ATWLPPR (SEQ ID NO:1)) was used as a positive control on every 96-well plate.

Consider `N=C(N)NCCCC(NC(=O)C1CCC(=O)NCCCCC(N)C(=O)N2CCCC2C(=O)N1)C(=O)O` (stereo not drawn) [H-c[Lys-Pro-Glu]-Arg-OH] (H-KPER-OH; lactam 1-3; configuration not given here), for which the IC50 came out at 180 nM. With “ATWLPPR [A7R, ATWLPPR, reference compound]”, the “decrease in inhibition with decreasing concentration” value (reduction of concentrations of 10-0.3 μM) is reported as 5 fold. For the molecule `N=C(N)NCCCC(NC(=O)C1CCC(=O)NC(CCCCN)C(=O)N2CCCC2C(=O)NC(C(=O)NC(CCCNC(=N)N)C(=O)O)CCC(=O)NC(CCCCN)C(=O)N2CCCC2C(=O)N1)C(=O)O` (stereo not drawn) [(c[Lys-Pro-Glu]-Arg-OH)2] (I: KPER-OH / II: KPER-OH; amide I:3-II:N, I:N-II:3; configuration not given here), the concentration for half-maximal inhibition (IC50) was found to be 460 nM.
